Assay results taken from PubChem BioAssay (NCI).
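Each compound was tested at five concentrations against cells in 96-well plates for 48 hours. TGI: total growth inhibition.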

Columns and labels:
Assay in all cases: inhibition of tumour cell growth, NCI panel, 48 h
CCRF-CEM leukemia = test system: CCRF-CEM leukemia
MOLT-4 leukemia = test system: MOLT-4 leukemia
UO-31 renal = test system: UO-31 renal
HOP-92 NSCLC = test system: HOP-92 NSCLC
NCI-H23 lung = test system: NCI-H23 lung
MDA-MB-435 = test system: MDA-MB-435
SR leukemia = test system: SR leukemia
OVCAR-5 ovarian = test system: OVCAR-5 ovarian
M14 melanoma = test system: M14 melanoma
BT-549 breast = test system: BT-549 breast
KM12 colon = test system: KM12 colon
SNB-75 CNS = test system: SNB-75 CNS
HCT-15 colon = test system: HCT-15 colon
OVCAR-4 ovarian = test system: OVCAR-4 ovarian
SK-MEL-5 melanoma = test system: SK-MEL-5 melanoma
UACC-62 melanoma = test system: UACC-62 melanoma
NCI/ADR-RES ovarian = test system: NCI/ADR-RES ovarian
SF-295 CNS = test system: SF-295 CNS
HCC-2998 colon = test system: HCC-2998 colon
NCI-H226 lung = test system: NCI-H226 lung

Cc1cc(C)c2c(n1)S(=O)(=O)N(CCCN1CCN(c3cccc(Cl)c3)CC1)/C(=C(\O)c1ccc(Br)cc1)C2=O
TGI (CCRF-CEM leukemia): > 100 µM | TGI (MOLT-4 leukemia): 60.2 µM | TGI (UO-31 renal): 48.9 µM | TGI (HOP-92 NSCLC): 59.6 µM | TGI (NCI-H23 lung): > 100 µM | TGI (MDA-MB-435): 78.8 µM | TGI (SR leukemia): > 100 µM | TGI (OVCAR-5 ovarian): > 100 µM | TGI (M14 melanoma): > 100 µM | TGI (BT-549 breast): > 100 µM | TGI (KM12 colon): > 100 µM | TGI (SNB-75 CNS): 28.3 µM | TGI (HCT-15 colon): > 100 µM | TGI (OVCAR-4 ovarian): 55.8 µM | TGI (SK-MEL-5 melanoma): 39.7 µM | TGI (UACC-62 melanoma): > 100 µM | TGI (NCI/ADR-RES ovarian): > 100 µM | TGI (SF-295 CNS): 86 µM

Cn1cc2c3ccccc3nc-2c2ccccc21
TGI (CCRF-CEM leukemia): 5.99 µM | TGI (MOLT-4 leukemia): 2.74 µM | TGI (UO-31 renal): 2.92 µM | TGI (HOP-92 NSCLC): 4.3 µM | TGI (NCI-H23 lung): 3.15 µM | TGI (MDA-MB-435): 6.33 µM | TGI (SR leukemia): 2.1 µM | TGI (OVCAR-5 ovarian): 6.84 µM | TGI (M14 melanoma): 4.4 µM | TGI (BT-549 breast): 14.7 µM | TGI (KM12 colon): 6.78 µM | TGI (SNB-75 CNS): 6.6 µM | TGI (HCT-15 colon): 4.94 µM | TGI (OVCAR-4 ovarian): 5.25 µM | TGI (SK-MEL-5 melanoma): 3.64 µM | TGI (UACC-62 melanoma): 3.15 µM | TGI (NCI/ADR-RES ovarian): 4.24 µM | TGI (HCC-2998 colon): 3.04 µM | TGI (SF-295 CNS): 10.4 µM

COc1ccc(C2=NNC(=O)c3ccccc3N2c2nc(-c3cccs3)nc3cc(OC)c(OC)cc23)cc1
TGI (MOLT-4 leukemia): > 100 µM | TGI (UO-31 renal): 25 µM | TGI (HOP-92 NSCLC): 7.97 µM | TGI (NCI-H23 lung): > 100 µM | TGI (MDA-MB-435): 13.6 µM | TGI (SR leukemia): > 100 µM | TGI (OVCAR-5 ovarian): > 100 µM | TGI (M14 melanoma): 20.2 µM | TGI (BT-549 breast): 6.63 µM | TGI (NCI-H226 lung): 20.6 µM | TGI (KM12 colon): > 100 µM | TGI (SNB-75 CNS): 14.1 µM | TGI (HCT-15 colon): > 100 µM | TGI (OVCAR-4 ovarian): 4.49 µM | TGI (SK-MEL-5 melanoma): 17.3 µM | TGI (UACC-62 melanoma): 5.79 µM | TGI (NCI/ADR-RES ovarian): > 100 µM | TGI (HCC-2998 colon): 7.21 µM | TGI (SF-295 CNS): 9.9 µM

CCOS(=O)(=O)c1ccc(-c2c3nc(c(-c4ccc(S(=O)(=O)OCC)cc4)c4ccc([nH]4)c(-c4ccc(S(=O)(=O)OCC)cc4)c4nc(c(-c5ccc(S(=O)(=O)OCC)cc5)c5ccc2[nH]5)C=C4)C=C3)cc1
TGI (CCRF-CEM leukemia): > 31.6 µM | TGI (MOLT-4 leukemia): > 31.6 µM | TGI (UO-31 renal): > 31.6 µM | TGI (HOP-92 NSCLC): > 100 µM | TGI (NCI-H23 lung): > 31.6 µM | TGI (MDA-MB-435): > 31.6 µM | TGI (SR leukemia): > 31.6 µM | TGI (OVCAR-5 ovarian): > 31.6 µM | TGI (M14 melanoma): > 31.6 µM | TGI (BT-549 breast): > 31.6 µM | TGI (NCI-H226 lung): > 100 µM | TGI (KM12 colon): > 31.6 µM | TGI (HCT-15 colon): > 31.6 µM | TGI (OVCAR-4 ovarian): > 31.6 µM | TGI (SK-MEL-5 melanoma): > 31.6 µM | TGI (UACC-62 melanoma): > 31.6 µM | TGI (NCI/ADR-RES ovarian): > 31.6 µM | TGI (HCC-2998 colon): > 31.6 µM | TGI (SF-295 CNS): > 31.6 µM

CSc1ncc2c(n1)-c1ccccc1OC2
TGI (CCRF-CEM leukemia): > 100 µM | TGI (MOLT-4 leukemia): > 100 µM | TGI (UO-31 renal): > 100 µM | TGI (HOP-92 NSCLC): 86.9 µM | TGI (NCI-H23 lung): > 100 µM | TGI (MDA-MB-435): > 100 µM | TGI (SR leukemia): > 100 µM | TGI (OVCAR-5 ovarian): > 100 µM | TGI (M14 melanoma): > 100 µM | TGI (BT-549 breast): > 100 µM | TGI (NCI-H226 lung): > 100 µM | TGI (KM12 colon): > 100 µM | TGI (SNB-75 CNS): > 100 µM | TGI (HCT-15 colon): > 100 µM | TGI (OVCAR-4 ovarian): > 100 µM | TGI (SK-MEL-5 melanoma): > 100 µM | TGI (UACC-62 melanoma): > 100 µM | TGI (NCI/ADR-RES ovarian): > 100 µM | TGI (SF-295 CNS): > 100 µM

CC[C@]12C=CCN3CC[C@@]4(c5cc(Br)c(OC)cc5N(C)[C@H]4[C@@](O)(C(=O)NC(Cc4c[nH]c5ccccc45)C(=O)OC)[C@@H]1O)[C@@H]32 (stereo partly specified)
TGI (CCRF-CEM leukemia): > 100 µM | TGI (MOLT-4 leukemia): > 100 µM | TGI (UO-31 renal): > 100 µM | TGI (HOP-92 NSCLC): > 100 µM | TGI (NCI-H23 lung): > 100 µM | TGI (MDA-MB-435): > 100 µM | TGI (SR leukemia): 34.9 µM | TGI (OVCAR-5 ovarian): > 100 µM | TGI (M14 melanoma): > 100 µM | TGI (BT-549 breast): > 100 µM | TGI (NCI-H226 lung): > 100 µM | TGI (KM12 colon): > 100 µM | TGI (SNB-75 CNS): > 100 µM | TGI (HCT-15 colon): > 100 µM | TGI (OVCAR-4 ovarian): > 100 µM | TGI (SK-MEL-5 melanoma): 75.8 µM | TGI (UACC-62 melanoma): > 100 µM | TGI (NCI/ADR-RES ovarian): > 100 µM | TGI (SF-295 CNS): > 100 µM

COc1ccc(-c2cc(-c3ccc(Nc4ccnc5cc(Cl)ccc45)cc3)[nH]c(=O)c2C#N)cc1
TGI (MOLT-4 leukemia): > 100 µM | TGI (UO-31 renal): > 100 µM | TGI (HOP-92 NSCLC): > 100 µM | TGI (NCI-H23 lung): > 100 µM | TGI (MDA-MB-435): > 100 µM | TGI (SR leukemia): > 100 µM | TGI (OVCAR-5 ovarian): > 100 µM | TGI (M14 melanoma): > 100 µM | TGI (BT-549 breast): > 100 µM | TGI (NCI-H226 lung): > 100 µM | TGI (KM12 colon): > 100 µM | TGI (SNB-75 CNS): > 100 µM | TGI (HCT-15 colon): > 100 µM | TGI (OVCAR-4 ovarian): > 100 µM | TGI (UACC-62 melanoma): > 100 µM | TGI (NCI/ADR-RES ovarian): > 100 µM | TGI (HCC-2998 colon): > 100 µM | TGI (SF-295 CNS): > 100 µM

CSc1nc(NCc2ccccc2)c2cnn(COCCO)c2n1
TGI (CCRF-CEM leukemia): > 100 µM | TGI (MOLT-4 leukemia): 86.7 µM | TGI (UO-31 renal): > 100 µM | TGI (HOP-92 NSCLC): > 100 µM | TGI (NCI-H23 lung): > 100 µM | TGI (MDA-MB-435): 80.5 µM | TGI (SR leukemia): > 100 µM | TGI (OVCAR-5 ovarian): > 100 µM | TGI (M14 melanoma): > 100 µM | TGI (BT-549 breast): > 100 µM | TGI (NCI-H226 lung): > 100 µM | TGI (KM12 colon): > 100 µM | TGI (SNB-75 CNS): 53.6 µM | TGI (OVCAR-4 ovarian): > 100 µM | TGI (SK-MEL-5 melanoma): > 100 µM | TGI (UACC-62 melanoma): > 100 µM | TGI (NCI/ADR-RES ovarian): > 100 µM | TGI (SF-295 CNS): > 100 µM

COc1cccc(CCNc2c(C#N)c3n(c4ccccc4[n+]3C)c3ncccc23)c1
TGI (MOLT-4 leukemia): 7.45 µM | TGI (UO-31 renal): 12 µM | TGI (HOP-92 NSCLC): > 58.9 µM | TGI (NCI-H23 lung): > 56.5 µM | TGI (MDA-MB-435): 45.6 µM | TGI (SR leukemia): > 100 µM | TGI (OVCAR-5 ovarian): 34 µM | TGI (M14 melanoma): 3.08 µM | TGI (BT-549 breast): 49.5 µM | TGI (NCI-H226 lung): 45.9 µM | TGI (KM12 colon): 4.53 µM | TGI (SNB-75 CNS): 12.8 µM | TGI (HCT-15 colon): 3.74 µM | TGI (OVCAR-4 ovarian): 10.8 µM | TGI (SK-MEL-5 melanoma): 28.8 µM | TGI (UACC-62 melanoma): > 59.4 µM | TGI (NCI/ADR-RES ovarian): > 51 µM | TGI (HCC-2998 colon): 3.46 µM | TGI (SF-295 CNS): 3.67 µM

CC1CN(CCO)CCN1c1ccccc1 (stereo unspecified)
TGI (MOLT-4 leukemia): > 100 µM | TGI (UO-31 renal): > 100 µM | TGI (HOP-92 NSCLC): > 100 µM | TGI (NCI-H23 lung): > 100 µM | TGI (MDA-MB-435): > 100 µM | TGI (SR leukemia): > 100 µM | TGI (OVCAR-5 ovarian): > 100 µM | TGI (M14 melanoma): > 100 µM | TGI (BT-549 breast): > 100 µM | TGI (NCI-H226 lung): > 100 µM | TGI (KM12 colon): > 100 µM | TGI (SNB-75 CNS): > 100 µM | TGI (HCT-15 colon): > 100 µM | TGI (OVCAR-4 ovarian): > 100 µM | TGI (SK-MEL-5 melanoma): > 100 µM | TGI (UACC-62 melanoma): > 100 µM | TGI (NCI/ADR-RES ovarian): > 100 µM | TGI (SF-295 CNS): > 100 µM
